Measurements: ChEMBL document CHEMBL5346968, “Exploring Structural Determinants of Bias among D4 Subtype-Selective Dopamine Receptor Agonists” (J Med Chem, 2023)

Assays:
D(4) dopamine receptor [1] = target: T1, D(4) dopamine receptor (Homo sapiens, UniProt P21917); test: Agonist activity at human dopamine D4 receptor transfected in HEK293T cells co-transfected with Galpha-qi assessed as activation of GPCR-mediated receptor signaling incubated for 90 mins by IP-one HTRF assay; format: functional, cell-based
T1 sequence (P21917 whole entry): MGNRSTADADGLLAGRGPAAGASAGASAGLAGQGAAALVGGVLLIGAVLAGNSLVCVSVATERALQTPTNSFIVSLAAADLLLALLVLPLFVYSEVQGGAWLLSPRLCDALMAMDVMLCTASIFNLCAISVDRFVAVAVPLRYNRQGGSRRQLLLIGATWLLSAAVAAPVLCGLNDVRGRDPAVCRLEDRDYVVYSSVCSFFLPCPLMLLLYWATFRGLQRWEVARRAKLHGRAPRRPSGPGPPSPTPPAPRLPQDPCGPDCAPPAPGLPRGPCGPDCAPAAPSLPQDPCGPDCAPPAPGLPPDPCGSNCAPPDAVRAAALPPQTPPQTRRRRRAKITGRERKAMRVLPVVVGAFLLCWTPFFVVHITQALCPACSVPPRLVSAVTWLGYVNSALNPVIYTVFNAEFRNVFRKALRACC

D(4) dopamine receptor [2] = target: T1, D(4) dopamine receptor; test: Agonist activity at PKA-tagged human dopamine D4 receptor transfected in HEK293T cells expressing (EA)-beta-arrestin assessed as beta-arrestin recruitment incubated for 3 hrs by chemiluminescence based PathHunter assay; format: functional, cell-based
D(4) dopamine receptor [3] = target: T1, D(4) dopamine receptor; test: Agonist activity at PKA-tagged human dopamine D4 receptor transfected in HEK293T cells expressing (EA)-beta-arrestin and GRK2 assessed as beta-arrestin recruitment incubated for 3 hrs by chemiluminescence based PathHunter assay; format: functional, cell-based
D(2) dopamine receptor [4] = target: T2, D(2) dopamine receptor (Homo sapiens, UniProt P14416); test: Displacement of [3H]-N-methylspiperone from human dopmaine D2L receptor expressed in CHO cell membrane assessed as inhibition constant by competition binding assay; format: cell membranes
T2 sequence (P14416 whole entry): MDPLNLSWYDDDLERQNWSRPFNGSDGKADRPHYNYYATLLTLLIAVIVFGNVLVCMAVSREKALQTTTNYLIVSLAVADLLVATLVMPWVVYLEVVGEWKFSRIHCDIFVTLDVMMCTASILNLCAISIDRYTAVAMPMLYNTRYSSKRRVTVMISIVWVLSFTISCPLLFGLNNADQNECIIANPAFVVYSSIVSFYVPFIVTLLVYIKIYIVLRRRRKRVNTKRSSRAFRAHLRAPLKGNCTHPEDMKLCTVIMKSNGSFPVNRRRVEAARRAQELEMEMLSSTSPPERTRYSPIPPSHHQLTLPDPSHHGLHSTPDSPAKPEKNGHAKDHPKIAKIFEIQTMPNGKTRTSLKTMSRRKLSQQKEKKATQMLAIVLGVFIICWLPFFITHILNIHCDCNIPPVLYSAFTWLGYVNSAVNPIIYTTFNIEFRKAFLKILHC

D(2) dopamine receptor [5] = target: T2, D(2) dopamine receptor; test: Displacement of [3H]-N-methylspiperone from human dopmaine D2S receptor expressed in CHO cell membrane assessed as inhibition constant by competition binding assay; format: cell membranes
D(3) dopamine receptor = D(3) dopamine receptor (Homo sapiens, UniProt P35462); test: Displacement of [3H]-N-methylspiperone from human dopmaine D3 receptor expressed in HEK293T cells assessed as inhibition constant by competition binding assay; format: cell-based
D(3) dopamine receptor, sequence (P35462 whole entry): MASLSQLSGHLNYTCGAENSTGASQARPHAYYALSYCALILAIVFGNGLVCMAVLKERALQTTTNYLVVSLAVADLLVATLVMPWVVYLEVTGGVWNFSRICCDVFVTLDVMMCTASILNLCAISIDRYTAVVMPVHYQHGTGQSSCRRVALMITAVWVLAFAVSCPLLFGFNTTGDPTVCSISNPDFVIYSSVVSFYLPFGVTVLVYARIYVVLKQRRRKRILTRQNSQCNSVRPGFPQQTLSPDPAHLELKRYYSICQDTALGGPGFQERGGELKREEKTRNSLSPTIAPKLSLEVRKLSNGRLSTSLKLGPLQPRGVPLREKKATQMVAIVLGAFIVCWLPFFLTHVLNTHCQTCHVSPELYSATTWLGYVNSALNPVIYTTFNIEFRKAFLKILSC

D(4) dopamine receptor [6] = target: T1, D(4) dopamine receptor; test: Displacement of [3H]-N-methylspiperone from human dopmaine D4.4 receptor expressed in HEK293T cells assessed as inhibition constant by competition binding assay; format: cell-based
D(1A) dopamine receptor = D(1A) dopamine receptor (Homo sapiens, UniProt P21728); test: Displacement of [3H]SCH23390 from human dopamine D1 receptor expressed in HEK293T cells assessed as inhibition constant by competition binding assay; format: cell-based
D(1A) dopamine receptor, sequence (P21728 whole entry): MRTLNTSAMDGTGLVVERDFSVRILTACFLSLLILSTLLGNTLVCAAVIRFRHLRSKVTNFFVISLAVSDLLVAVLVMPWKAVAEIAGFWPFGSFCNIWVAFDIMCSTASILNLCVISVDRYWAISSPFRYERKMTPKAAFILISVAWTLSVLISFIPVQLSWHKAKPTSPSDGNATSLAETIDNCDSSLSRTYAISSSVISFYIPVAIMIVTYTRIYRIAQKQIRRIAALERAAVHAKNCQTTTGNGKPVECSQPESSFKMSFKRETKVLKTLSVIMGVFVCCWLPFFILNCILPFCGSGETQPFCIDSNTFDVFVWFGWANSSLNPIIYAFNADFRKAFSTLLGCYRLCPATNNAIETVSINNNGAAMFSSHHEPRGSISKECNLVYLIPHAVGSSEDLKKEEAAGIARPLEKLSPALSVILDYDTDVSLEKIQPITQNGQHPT

D(1B) dopamine receptor = D(1B) dopamine receptor (Homo sapiens, UniProt P21918); test: Displacement of [3H]SCH23390 from human dopamine D5 receptor expressed in HEK293T cells assessed as inhibition constant by competition binding assay; format: cell-based
D(1B) dopamine receptor, sequence (P21918 whole entry): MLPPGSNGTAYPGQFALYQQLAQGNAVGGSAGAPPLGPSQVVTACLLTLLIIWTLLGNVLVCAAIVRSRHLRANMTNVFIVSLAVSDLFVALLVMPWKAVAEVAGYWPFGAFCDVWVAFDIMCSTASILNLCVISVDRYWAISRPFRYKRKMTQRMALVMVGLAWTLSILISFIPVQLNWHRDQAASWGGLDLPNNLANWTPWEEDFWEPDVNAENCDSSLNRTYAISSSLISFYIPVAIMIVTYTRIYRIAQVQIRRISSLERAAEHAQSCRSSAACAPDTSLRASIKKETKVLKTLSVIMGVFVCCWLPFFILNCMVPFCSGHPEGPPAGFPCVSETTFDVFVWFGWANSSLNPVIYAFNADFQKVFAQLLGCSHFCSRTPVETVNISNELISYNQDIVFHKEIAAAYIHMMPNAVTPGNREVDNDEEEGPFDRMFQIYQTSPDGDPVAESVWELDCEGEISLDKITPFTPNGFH

[7] = target: T3, Alpha-1A adrenergic receptor (Homo sapiens, UniProt P35348); test: Displacement of [3H]prazosin from adrenergic alpha 1A receptor (unknown origin) expressed in HEK293T cells assessed as inhibition constant by competition binding assay; format: cell-based
T3 sequence (P35348 whole entry): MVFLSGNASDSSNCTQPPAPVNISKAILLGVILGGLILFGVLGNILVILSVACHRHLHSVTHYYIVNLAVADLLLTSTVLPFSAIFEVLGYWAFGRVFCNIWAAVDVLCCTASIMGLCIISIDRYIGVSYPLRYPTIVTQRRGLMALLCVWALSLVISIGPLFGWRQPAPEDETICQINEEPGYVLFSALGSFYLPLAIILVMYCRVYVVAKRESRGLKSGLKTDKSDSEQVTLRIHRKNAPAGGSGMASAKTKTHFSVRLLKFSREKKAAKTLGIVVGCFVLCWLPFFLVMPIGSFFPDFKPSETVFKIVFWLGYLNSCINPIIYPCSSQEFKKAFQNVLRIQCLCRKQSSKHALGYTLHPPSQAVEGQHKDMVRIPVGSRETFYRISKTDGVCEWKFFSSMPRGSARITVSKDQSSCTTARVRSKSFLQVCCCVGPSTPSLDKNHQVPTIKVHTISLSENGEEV

[8] = target: T4, Alpha-2A adrenergic receptor (Homo sapiens, UniProt P08913); test: Displacement of [3H]RX821002 from adrenergic alpha 2A receptor (unknown origin) expressed in HEK293T cells assessed as inhibition constant by competition binding assay; format: cell-based
T4 sequence (P08913 whole entry): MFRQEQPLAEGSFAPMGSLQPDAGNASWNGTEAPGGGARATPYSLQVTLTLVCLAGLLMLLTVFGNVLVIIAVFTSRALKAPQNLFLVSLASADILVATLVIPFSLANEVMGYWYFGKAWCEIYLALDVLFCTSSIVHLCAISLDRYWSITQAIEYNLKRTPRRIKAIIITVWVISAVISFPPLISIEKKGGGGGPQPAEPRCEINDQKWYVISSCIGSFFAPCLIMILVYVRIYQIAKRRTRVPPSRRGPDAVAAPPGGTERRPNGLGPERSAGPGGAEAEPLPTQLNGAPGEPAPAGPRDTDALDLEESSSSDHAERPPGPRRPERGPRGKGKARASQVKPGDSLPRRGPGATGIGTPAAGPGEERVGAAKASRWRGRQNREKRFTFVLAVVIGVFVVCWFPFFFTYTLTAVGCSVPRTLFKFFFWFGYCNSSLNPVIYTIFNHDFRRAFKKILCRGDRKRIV

[9] = target: T5, 5-hydroxytryptamine receptor 1A (Homo sapiens, UniProt P08908); test: Displacement of [3H][…] from 5-HT1A receptor (unknown origin) expressed in HEK293T cells assessed as inhibition constant by competition binding assay; format: cell-based
T5 sequence (P08908 whole entry): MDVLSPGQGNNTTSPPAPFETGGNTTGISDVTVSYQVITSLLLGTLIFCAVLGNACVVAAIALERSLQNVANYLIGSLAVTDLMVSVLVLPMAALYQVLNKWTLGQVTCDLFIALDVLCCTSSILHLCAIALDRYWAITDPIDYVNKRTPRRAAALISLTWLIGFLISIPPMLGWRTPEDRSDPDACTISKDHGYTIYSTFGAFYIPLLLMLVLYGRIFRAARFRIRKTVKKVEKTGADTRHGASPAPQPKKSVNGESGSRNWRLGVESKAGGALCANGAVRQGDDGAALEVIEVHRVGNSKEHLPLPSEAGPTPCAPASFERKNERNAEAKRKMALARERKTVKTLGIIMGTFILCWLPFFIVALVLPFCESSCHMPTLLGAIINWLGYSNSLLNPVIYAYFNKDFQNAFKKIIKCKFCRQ

[10] = target: 5-hydroxytryptamine receptor 2A (Homo sapiens, UniProt P28223); test: Displacement of [3H]ketanserin from 5-HT2A receptor (unknown origin) expressed in HEK293T cells assessed as inhibition constant by competition binding assay; format: cell-based
5-hydroxytryptamine receptor 2A, sequence (P28223 whole entry): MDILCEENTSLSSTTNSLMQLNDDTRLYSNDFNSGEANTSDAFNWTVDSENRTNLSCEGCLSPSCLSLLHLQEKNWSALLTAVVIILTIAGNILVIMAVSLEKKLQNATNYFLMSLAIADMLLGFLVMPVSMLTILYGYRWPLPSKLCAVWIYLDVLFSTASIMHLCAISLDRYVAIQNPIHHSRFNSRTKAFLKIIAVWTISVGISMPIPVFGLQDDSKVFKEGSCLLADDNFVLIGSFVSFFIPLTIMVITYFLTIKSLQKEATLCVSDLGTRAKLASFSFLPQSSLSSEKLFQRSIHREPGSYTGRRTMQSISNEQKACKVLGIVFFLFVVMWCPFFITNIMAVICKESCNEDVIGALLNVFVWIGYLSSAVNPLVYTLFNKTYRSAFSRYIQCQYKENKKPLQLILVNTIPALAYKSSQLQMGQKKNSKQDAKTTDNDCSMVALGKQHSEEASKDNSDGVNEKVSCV

[11] = Drug metabolism in pooled rat liver microsomes assessed as O-demethylation mediated metabolite formation at 40 uM measured upto 60 mins in the presence of NADPH by HPLC(UV) analysis; format: ADME, Microsome; conditions: 1 h
[12] = Drug metabolism in pooled rat liver microsomes assessed as hydroxylation mediated metabolite formation at 40 uM measured upto 60 mins in the presence of NADPH by HPLC(UV) analysis; format: ADME, Microsome; conditions: 1 h
[13] = Metabolic stability in pooled rat liver microsomes assessed as parent compound remaining at 40 uM measured after 60 mins in the presence of NADPH by HPLC(UV) analysis; format: ADME, Microsome; conditions: read-out: Stability
[14] = Permeability of the compound across basal to apical membrane in human Caco-2 cells at 10 uM incubated for 4 hrs by HPLC(UV) analysis; format: ADME, cell-based; conditions: caco-2, 4 h
[15] = Permeability of the compound across basal to apical membrane in human Caco-2 cells at 10 uM incubated for 4 hrs in the presence of valspodar by HPLC(UV) analysis; format: ADME, cell-based; conditions: caco-2, 4 h
[16] = Retention time of the compound by HPLC(UV) method; format: physicochemical

Row | SMILES | Ki (D(2) dopamine receptor [4]) [nM] | Ki (D(2) dopamine receptor [5]) [nM] | Ki (D(3) dopamine receptor) [nM] | Ki (D(4) dopamine receptor [6]) [nM] | other results
1 | COc1ccccc1N1CCN(CCCNC(=O)NN(Cc2ccc(F)cc2)c2ccccc2)CC1 |  |  |  |  | EC50 (D(4) dopamine receptor [1]): 1.8 nM; EC50 (D(4) dopamine receptor [2]): 350 nM; EC50 (D(4) dopamine receptor [3]): 42 nM
2 | COc1ccccc1N1CCN(CCCNC(=O)NN(Cc2ccccc2)c2ccc(F)cc2)CC1 |  |  |  |  | EC50 (D(4) dopamine receptor [1]): 41 nM; EC50 (D(4) dopamine receptor [2]): 470 nM; EC50 (D(4) dopamine receptor [3]): 410 nM
3 | COc1ccccc1N1CCN(CCCNC(=O)Nc2ccc(F)cc2-c2ccccc2)CC1 | 140 | 31 | 29 |  | 
4 | COc1ccccc1N1CCN(CCCNC(=O)NCc2ccccc2-c2ccc(F)cc2)CC1 | 210 | 75 | 99 | 5.3 | 
5 | COc1ccccc1N1CCN(CCCNC(=O)NCc2ccccc2-c2ccc(C(C)C)cc2)CC1 | 400 | 170 | 190 | 36 | 
6 | C#CCOc1ccc(NC(=O)NCCCN2CCN(c3ccccc3OC)CC2)c(-c2ccccc2)c1 | 86 | 46 | 39 | 3.5 | 
7 | COc1ccccc1N1CCN(CCCNC(=O)Nc2ccccc2-c2ccccc2)CC1 | 210 | 100 | 57 |  | Ki (D(1A) dopamine receptor): 730 nM; Ki (D(1B) dopamine receptor): 4500 nM; Ki [7]: 7.1 nM; Ki [8]: 28 nM; Ki [9]: 25 nM; Ki [10]: 960 nM; Drug metabolism [11]: Metabolite_Detected; Drug metabolism [12]: Metabolite_Detected; remaining at 1 h, 40 µM [13]: 57%; permeability [14]: 22.2%; permeability [15]: 18.3%; Retention_time [16]: 3.91 min
8 | COc1ccc(-c2ccccc2)c(CNC(=O)NCCCN2CCN(c3ccccc3OC)CC2)c1 | 130 | 78 | 120 |  | Ki (D(1A) dopamine receptor): 280 nM; Ki (D(1B) dopamine receptor): 3000 nM; Ki [7]: 8.9 nM; Ki [8]: 200 nM; Ki [9]: 27 nM; Ki [10]: 120 nM
9 | COc1ccccc1N1CCN(CCCNC(=O)NCc2ccccc2-c2cccc(F)c2)CC1 | 86 | 67 | 210 | 3.1 | 
10 | COc1ccccc1N1CCN(CCCNC(=O)NCc2ccccc2-c2ccc(-c3ccccc3)cc2)CC1 | 460 | 290 | 370 | 15 | 
11 | COc1ccc(NC(=O)NCCCN2CCN(c3ccccc3OC)CC2)cc1-c1ccc(F)cc1 | 89 | 53 | 66 | 5.8 | 
12 | COc1ccccc1N1CCN(CCCNC(=O)Nc2ccccc2-c2ccc(C(C)C)cc2)CC1 | 150 | 90 | 34 |  | 
13 | COc1cccc(-c2ccccc2NC(=O)NCCCN2CCN(c3ccccc3OC)CC2)c1 | 120 | 110 | 24 | 10 | 
